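Grown in 96-well plates, cells were treated for 48 hours with each compound at five concentrations. Insufficient inhibition: endpoint recorded as highest concentration tested. The concentration for 50% growth inhibition is given as GI50.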 Calls of active or inactive are those of the source. Rule as the data show it: active = GI50 up to about 1.1 µM and inactive = higher.
Key:
Test in all cases: DTP human tumour cell line panel, 48 h
RPMI-8226 = test system: RPMI-8226
CAKI-1 = test system: CAKI-1
DU-145 = test system: DU-145
HCT-116 = test system: HCT-116
RXF 393 = test system: RXF 393
MDA-MB-231 = test system: MDA-MB-231
OVCAR-4 = test system: OVCAR-4
SN12C = test system: SN12C
NCI-H226 = test system: NCI-H226
MDA-N = test system: MDA-N
NCI/ADR-RES = test system: NCI/ADR-RES
UACC-257 = test system: UACC-257
T47D = test system: T47D
TK-10 = test system: TK-10
COLO 205 = test system: COLO 205
NCI-H522 = test system: NCI-H522
K562 = test system: K562
Hs-578T = test system: Hs-578T
SW-620 = test system: SW-620
ACHN = test system: ACHN

Structure (SMILES) | GI50 (RPMI-8226) | GI50 (CAKI-1) | GI50 (DU-145) | GI50 (HCT-116) | GI50 (RXF 393) | GI50 (MDA-MB-231) | GI50 (OVCAR-4) | GI50 (SN12C) | GI50 (NCI-H226) | GI50 (MDA-N) | GI50 (NCI/ADR-RES) | GI50 (UACC-257) | GI50 (T47D) | GI50 (TK-10) | GI50 (COLO 205) | GI50 (NCI-H522) | GI50 (K562) | GI50 (Hs-578T) | GI50 (SW-620) | GI50 (ACHN)
c1ccc2c(c1)C(=Nc1ccc(N=C3c4ccccc4-c4ccccc43)cc1)c1ccccc1-2 | > 100 µM (inactive) | > 100 µM (inactive) | > 100 µM (inactive) | > 100 µM (inactive) | > 100 µM (inactive) | > 100 µM (inactive) | > 100 µM (inactive) | > 100 µM (inactive) | > 100 µM (inactive) | > 100 µM (inactive) | > 100 µM (inactive) | > 100 µM (inactive) | > 100 µM (inactive) | > 100 µM (inactive) | > 100 µM (inactive) | > 100 µM (inactive) | > 100 µM (inactive) | > 100 µM (inactive) | > 100 µM (inactive) | 
O=C1Oc2ccccc2C(=O)/C1=C/N1C(=O)/C(=C/c2ccc3c(c2)OCO3)SC1=S | 14.1 µM (inactive) | 17.5 µM (inactive) | 19.1 µM (inactive) | 33.7 µM (inactive) | 17.2 µM (inactive) | 25.1 µM (inactive) | 20.8 µM (inactive) | 18.2 µM (inactive) | 11.5 µM (inactive) | 24.9 µM (inactive) | 18.5 µM (inactive) | 24.3 µM (inactive) | 13.6 µM (inactive) |  | 20.5 µM (inactive) | 15.8 µM (inactive) | 16.6 µM (inactive) | 1.32 µM (inactive) | 22.8 µM (inactive) | 11.8 µM (inactive)
CC(C)CCCC(C)[C@H]1CC[C@H]2n3c(nc4ccccc43)CCC[C@]12C (some centres not stated) | 10.8 µM (inactive) | 17.1 µM (inactive) | 22 µM (inactive) | 12.9 µM (inactive) | 16.4 µM (inactive) | 16 µM (inactive) | 16 µM (inactive) | 15.9 µM (inactive) | 15.6 µM (inactive) | 16.2 µM (inactive) | 18.2 µM (inactive) | 20 µM (inactive) | 15.4 µM (inactive) | 17.4 µM (inactive) | 11.1 µM (inactive) |  | 15.6 µM (inactive) | 26.9 µM (inactive) | 17.7 µM (inactive) | 
CC1=C(C)C(=O)OC(C(C)(O)C2(O)CCC3(O)C4CC(Cl)C5(O)C(O)C=CC(=O)C5(C)C4CCC32C)C1 (configuration not stated) | 8.99 µM (inactive) | 12.2 µM (inactive) | > 100 µM (inactive) | 19.1 µM (inactive) | 18.5 µM (inactive) | 30.2 µM (inactive) | 57.4 µM (inactive) | 61 µM (inactive) | > 100 µM (inactive) | 20 µM (inactive) |  | 37.2 µM (inactive) | > 100 µM (inactive) | 34.3 µM (inactive) | 12.9 µM (inactive) | 10.8 µM (inactive) | 12.3 µM (inactive) | 66.4 µM (inactive) | 21.3 µM (inactive) | 42.1 µM (inactive)
COc1ccc(/C=C2\c3cc(OC)c(OC)cc3CCN2C(=O)c2ccccc2)cc1OC | 29.4 µM (inactive) | 54 µM (inactive) | 55 µM (inactive) | 35.5 µM (inactive) | 35.2 µM (inactive) | 45.5 µM (inactive) |  | 70.1 µM (inactive) | 37.9 µM (inactive) | 25 µM (inactive) | 23.7 µM (inactive) | 86.9 µM (inactive) | 33.3 µM (inactive) | > 100 µM (inactive) | 23.9 µM (inactive) | 20.3 µM (inactive) | 32.1 µM (inactive) | 35.6 µM (inactive) | 34.5 µM (inactive) | 53.5 µM (inactive)
COc1ccc(-c2nc(N)c(C#N)c3c2CCS(=O)(=O)c2ccc(C)cc2-3)cc1OC |  | 27 µM (inactive) | 29 µM (inactive) | 31.5 µM (inactive) |  | 28.6 µM (inactive) | 25.8 µM (inactive) | 50.2 µM (inactive) | 77.1 µM (inactive) | 11.7 µM (inactive) | 43.7 µM (inactive) | 22.6 µM (inactive) | 39.1 µM (inactive) | 56.1 µM (inactive) | 27.8 µM (inactive) | 8.87 µM (inactive) | 10.7 µM (inactive) | 24.6 µM (inactive) | 34.9 µM (inactive) | 48.4 µM (inactive)
CCc1n[nH]c(=O)n1N1C(=O)C2CC=CCC2C1=O (configuration not stated) | > 100 µM (inactive) | > 100 µM (inactive) |  | > 100 µM (inactive) | > 100 µM (inactive) | > 100 µM (inactive) | > 100 µM (inactive) | > 100 µM (inactive) | > 100 µM (inactive) | > 100 µM (inactive) | > 100 µM (inactive) | > 100 µM (inactive) | > 100 µM (inactive) | > 100 µM (inactive) | > 100 µM (inactive) | > 100 µM (inactive) | > 100 µM (inactive) | > 100 µM (inactive) | > 100 µM (inactive) | > 100 µM (inactive)
COC(c1ccc(C(C)(C)C)cc1)(c1ccc(C(C)(C)C)cc1)c1ccc(C(C)(C)C)cc1 | > 100 µM (inactive) | > 100 µM (inactive) | > 100 µM (inactive) | > 100 µM (inactive) |  | > 100 µM (inactive) | > 100 µM (inactive) | > 100 µM (inactive) | > 100 µM (inactive) | > 100 µM (inactive) | > 100 µM (inactive) |  | > 100 µM (inactive) | > 100 µM (inactive) | > 100 µM (inactive) | > 100 µM (inactive) | > 100 µM (inactive) | > 100 µM (inactive) | > 100 µM (inactive) | > 100 µM (inactive)
O=C(CCCl)NN=C1NCCCCN1 | > 100 µM (inactive) |  | > 100 µM (inactive) | > 100 µM (inactive) | > 100 µM (inactive) | > 100 µM (inactive) | > 100 µM (inactive) | > 100 µM (inactive) | > 100 µM (inactive) | > 100 µM (inactive) | > 100 µM (inactive) | > 100 µM (inactive) | > 100 µM (inactive) | > 100 µM (inactive) | > 100 µM (inactive) | > 100 µM (inactive) | > 100 µM (inactive) | > 100 µM (inactive) | > 100 µM (inactive) | > 100 µM (inactive)
COc1ccc(OC(=O)N2C/C(=C\c3ccccc3)C(=O)/C(=C/c3ccccc3)C2)cc1 | 0.0476 µM (active) |  | 24.9 µM (inactive) | 0.355 µM (active) | 2.58 µM (inactive) | 3.21 µM (inactive) | 8.17 µM (inactive) | 2.43 µM (inactive) | 10.1 µM (inactive) | 1.76 µM (inactive) |  | 3.74 µM (inactive) | 16 µM (inactive) | 18.2 µM (inactive) | 7.74 µM (inactive) | 2.05 µM (inactive) | 0.824 µM (active) | 2.11 µM (inactive) | 1.03 µM (active) | 3.94 µM (inactive)
CC(C)=NN/C(=N\c1ccc(Cl)cc1)NS(=O)(=O)c1ccc(Oc2cccc(Cl)c2C#N)cc1 | > 100 µM (inactive) | > 100 µM (inactive) | > 100 µM (inactive) | > 100 µM (inactive) |  | > 100 µM (inactive) | > 100 µM (inactive) | > 100 µM (inactive) | > 100 µM (inactive) | > 100 µM (inactive) | > 100 µM (inactive) | > 100 µM (inactive) | > 100 µM (inactive) | > 100 µM (inactive) | > 100 µM (inactive) | > 100 µM (inactive) | > 100 µM (inactive) | > 100 µM (inactive) | > 100 µM (inactive) | 
Oc1ccc(Br)cc1/C=N/C1CCCCC1 | 28.1 µM (inactive) | > 100 µM (inactive) | 21.4 µM (inactive) | 12.4 µM (inactive) | > 100 µM (inactive) | 36.3 µM (inactive) | 21.1 µM (inactive) | < 0.01 µM (active) |  | 34.8 µM (inactive) | 38.7 µM (inactive) | 47.2 µM (inactive) | 4.12 µM (inactive) | > 100 µM (inactive) | 65.5 µM (inactive) | 55.3 µM (inactive) | 17.7 µM (inactive) | 37.7 µM (inactive) | 24.8 µM (inactive) | 65.5 µM (inactive)
CSc1ccc(C=C2N=C(c3ccccc3)N(c3cc(C(=O)c4ccccc4)ccc3N3C(=O)/C(=C/c4ccc(SC)cc4)N=C3c3ccccc3)C2=O)cc1 | 25.4 µM (inactive) | 56.1 µM (inactive) | 49.9 µM (inactive) | 59.3 µM (inactive) |  | 80.5 µM (inactive) | 40 µM (inactive) | 76.6 µM (inactive) |  | 93.1 µM (inactive) | 46 µM (inactive) | 89.9 µM (inactive) | 34.5 µM (inactive) | 51.1 µM (inactive) | 56.9 µM (inactive) |  | 46 µM (inactive) | 52.7 µM (inactive) | > 100 µM (inactive) | 52.4 µM (inactive)
COC(=O)C1(C)CCC(c2ccc(C)cc2)=C(CC(=O)O)C1 (configuration not stated) | > 100 µM (inactive) |  | > 100 µM (inactive) | > 100 µM (inactive) | > 100 µM (inactive) | > 100 µM (inactive) | > 100 µM (inactive) | > 100 µM (inactive) |  | > 100 µM (inactive) | > 100 µM (inactive) | > 100 µM (inactive) | > 100 µM (inactive) | > 100 µM (inactive) | > 100 µM (inactive) | > 100 µM (inactive) | > 100 µM (inactive) | > 100 µM (inactive) | > 100 µM (inactive) | > 100 µM (inactive)
N#CC12CC=C(c3ccccc3)N=C1NC(c1ccccc1)=CC2 (configuration not stated) | 28.8 µM (inactive) |  | 57.5 µM (inactive) | 47 µM (inactive) | > 100 µM (inactive) | > 100 µM (inactive) | 29.7 µM (inactive) | > 100 µM (inactive) | 60.8 µM (inactive) | 37.3 µM (inactive) | 53.5 µM (inactive) | 48.6 µM (inactive) | 34.7 µM (inactive) | > 100 µM (inactive) | 30.8 µM (inactive) | 46.7 µM (inactive) | 31.6 µM (inactive) | > 100 µM (inactive) | 98.9 µM (inactive) | 57.4 µM (inactive)
